Protocol: The sample was tested by GC (carrier gas: N2) and HPLC (Column: Waters Xselect HSS T3 (150 mm*4.6 mm, 3.5 um) P/N: 186004786; mobile phase 0.05% TFA in water, ACN:MeOH=1:1, v/v; Flow: 1 ml/min; Temperature: 30° C.).

Compound: C1COC2(CC3(CCNCC3)C2)OC1.Cl [1,5-dioxa-11-azadispiro[5.1.5.1]tetradecane hydrogen chloride]
- storage stability (result in words): stable enough
- Product, Impurity profile (RRT, Area %), RRT 1.00 (stored at 2-8° C. for 3.5 months, double layered LDPE bag with desiccant inside heat-sealed aluminum foil bag, GC and HPLC): 99.90 Area %
